In patent US6905836B2, “Methods for identifying compounds that inhibit ubiquitin-mediated proteolysis of iκb” (Yissum Research Development Company of the Hebrew …, priority 2000, dated 2005):
Residues, ends and D or L forms follow the SMILES beside them. *: point of attachment. Cbz = O=C(OCc1ccccc1)*

T1: E3RS-hnRNP-U complex (Homo sapiens, UniProt Q9Y297)
T1 construct: expressed in transfected cells; host or cells: 293T cells
T1 sequence (Q9Y297 1-605): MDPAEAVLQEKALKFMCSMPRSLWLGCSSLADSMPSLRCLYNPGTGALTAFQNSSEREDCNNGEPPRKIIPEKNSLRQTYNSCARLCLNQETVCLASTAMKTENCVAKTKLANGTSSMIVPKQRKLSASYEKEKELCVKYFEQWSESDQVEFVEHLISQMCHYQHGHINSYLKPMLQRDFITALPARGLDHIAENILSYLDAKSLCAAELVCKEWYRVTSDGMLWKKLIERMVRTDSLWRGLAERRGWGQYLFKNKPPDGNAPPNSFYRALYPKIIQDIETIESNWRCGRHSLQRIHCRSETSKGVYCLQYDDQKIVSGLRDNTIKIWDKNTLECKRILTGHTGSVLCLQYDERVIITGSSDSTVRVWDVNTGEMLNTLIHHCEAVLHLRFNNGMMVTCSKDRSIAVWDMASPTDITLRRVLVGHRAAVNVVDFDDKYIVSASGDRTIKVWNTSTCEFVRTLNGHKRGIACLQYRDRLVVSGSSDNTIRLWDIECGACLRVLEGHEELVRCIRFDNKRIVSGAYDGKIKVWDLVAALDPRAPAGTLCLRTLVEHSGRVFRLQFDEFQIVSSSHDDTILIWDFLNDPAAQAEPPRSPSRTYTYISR


What was measured:
[1] = test system: Vpu-mediated GFP-CD4 degradation; test: Vpu-mediated CD4 degradation assay (GFP-CD4, tet-off Vpu); format: cell-based, human; conditions: 293 cells, pretreatment of transfected cells, Western blotting (FIG. 7C)
Procedure: The inducible system consists of the tetracycline (Tc)-responsive promoter system developed by Gossen and Bujard (1992). Vpu and GFP-CD4 expression were performed in either HeLa Tet-off gene expression system (CLONTECH). These stably transfected HeLa cells carry the pTet-Off regulator plasmid encoding a tetracycline-controlled transactivator (tTA), which also includes a neomycin-resistance gene. Alternatively 293 cells were transfected with the inducible constructs and the pTet-Off plasmid (Lavon et al., 2000). […]
The ubiquitin-ligase activity is measured as a function of Vpu-mediated GFP-CD4 degradation (FIG. 7A). […] The N-terminal CD4 sequence, including the first three Ig-like domains (but preserving the CD4 signal sequence), was replaced with the human EGFP sequence for allowing the quantitative measurement of the fusion protein through the GFP fluorescence signal.
A GFP-CD4 expression plasmid was co-transfected into 293 cells together with expression plasmids for doxycycline (DOX)-regulated HIV-Vpu and tTA (tetracycline transactivator) plasmid. Vpu and GFP-CD4 expression were detected by Western blotting. […]

[2] = biological target: T1, E3RS-hnRNP-U complex; test: Dissociation of E3RS from immobilized hnRNP-U by IκBα species; format: binding; conditions: anti-hnRNP-U immunobeads from Flag-E3RS transfected 293T cells; Western blot (FIG. 4D)
Procedure: Flag-E3RS and endogenous hnRNP-U from 293T cells were used as an E3 source and Flag-WD was used as a negative control. 100 μg protein extract was immunoprecipitated using 2 μl anti-Flag beads or 0.21 μl anti-hnRNP-U antibodies. IκB was phosphorylated by the constitutively-active IκB kinase (IKK2; (Mercurio et al., 1997)) and subjected to binding and ubiquitination assays with each of the above E3 sources, as described previously by (Yaron et al., 1998).
Next, 293T cells transfected with Flag-E3RS were immunoprecipitated using anti-Flag (lanes 1,2) or anti-hnRNP-U (FIG. 4D, lanes 3-7) antibodies. IκBα (FIG. 4D, lanes 1,3,4) and IKK phosphorylated IκBα (pIκBα; FIG. 4D, lanes 2,5-7) were incubated with the immunobeads, after which, both the immunobeads (slurry (S); FIG. 4D, lanes 1-3,5) and the post-slurry fractions (PS; FIG. 4D, lanes 4,6) were analyzed by Western blot directly, or after immunoprecipitation of the post-slurry fraction (same as in FIG. 4D, lane 6) with anti-Flag beads (FIG. 4D, lane 7).

Molecule	GFP-CD4 signal upon Vpu expression [1]	dissociation of E3RS from immobilized hnRNP-U into the post-slurry fraction [2]
CC(C)C[C@@H](C=O)NC(=O)[C@H](CC(C)C)NC(=O)[C@H](CC(C)C)NC(=O)OCc1ccccc1 [MG132] (Cbz-Leu-Leu-Leu-aldehyde)	preservation of the GFP-CD4 signal	
pIκBα: IKK phosphorylated IκBα protein (protein) MFQAAERPQEWAMEGPRDGLKKERLLDDRHDSGLDSMKDEEYEQMVKELQEIRLEPQEVPRGSEPWKQQLTEDGDSFLHLAIIHEEKALTMEVIRQVKGDLAFLNFQNNLQQTPLHLAVITNQPEIAEALLGAGCDPELRDFRGNTPLHLACEQGCLASVGVLTQSCTTPHLHSILKATNYNGHTCLHLASIHGYLGIVELLVSLGADVNAQEPCNGRTALHLAVDLQNPDLVSLLLKCGADVNRVTYQGYSPYQLTWGRPSTRIQQQLGQLTLENLQMLPESEDEESYDTESEFTEFTEDELPYDDCVFGGQRLTL		induced the dissociation of the E3RS from the immobilized hnRNP-U
